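96-well plates; 48 h exposure; 5 concentrations. Endpoints by linear interpolation between flanking doses. Not reached: highest tested concentration assigned. GI50 is the concentration that inhibits growth by half.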 Active and inactive are the calls of the source. Rule as the data show it: active = GI50 up to about 1.1 µM and inactive = higher.
Columns and labels:
Assay in all cases: growth of human tumour cells (NCI), 48 h
[1] = test system: A498
[2] = test system: CCRF-CEM
[3] = test system: SNB-19
[4] = test system: COLO 205
[5] = test system: K562
[6] = test system: NCI-H522
[7] = test system: SK-MEL-5
[8] = test system: MDA-MB-435
[9] = test system: SW-620
[10] = test system: BT-549
[11] = test system: T47D
[12] = test system: ACHN
[13] = test system: A549
[14] = test system: SR
[15] = test system: NCI-H23
[16] = test system: RPMI-8226
[17] = test system: SF-268
[18] = test system: MDA-MB-231
[19] = test system: SF-539
[20] = test system: LOX IMVI

Measured: GI50

Cc1c(CN2CCOCC2)c(CN2CCOCC2)c(C)n1-c1ccc(Cl)cn1
inactive: [1] > 100 µM | [2] > 100 µM | [3] > 100 µM | [4] > 100 µM | [5] > 100 µM | [6] > 100 µM | [7] > 100 µM | [8] > 100 µM | [9] > 100 µM | [10] > 100 µM | [11] > 100 µM | [12] > 100 µM | [13] > 100 µM | [14] > 100 µM | [15] > 100 µM | [16] > 100 µM | [17] > 100 µM | [18] > 100 µM

O=c1oc2ccc([N+](=O)[O-])cc2c(Nc2ccc3c(c2)S(=O)(=O)c2ccccc2O3)c1[N+](=O)[O-]
inactive: [19] 46.8 µM | [2] 38.3 µM | [3] 77.1 µM | [4] > 100 µM | [5] 33 µM | [6] 87.1 µM | [7] 81.8 µM | [8] > 100 µM | [9] 97.7 µM | [20] 78.2 µM | [10] 73.1 µM | [11] > 100 µM | [12] > 100 µM | [13] > 100 µM | [14] 32.4 µM | [15] > 100 µM | [16] 39 µM | [17] 88.5 µM | [18] 49.7 µM

C[C@]12[C@@H]3CC[C@H]1[C@@H](O)C(=O)N2CC3
inactive: [1] > 100 µM | [2] > 100 µM | [3] > 100 µM | [4] > 100 µM | [5] > 100 µM | [6] > 100 µM | [7] > 100 µM | [8] > 100 µM | [9] > 100 µM | [20] > 100 µM | [10] > 100 µM | [11] > 100 µM | [12] > 100 µM | [13] > 100 µM | [14] > 100 µM | [15] > 100 µM | [16] > 100 µM | [17] > 100 µM | [18] > 100 µM

N#C[C@@H](c1ccccn1)c1ncccc1[N+](=O)[O-]
inactive: [1] > 100 µM | [2] > 100 µM | [3] > 100 µM | [4] > 100 µM | [5] > 100 µM | [6] > 100 µM | [7] 90.2 µM | [8] > 100 µM | [9] > 100 µM | [20] > 100 µM | [10] > 100 µM | [11] > 100 µM | [12] > 100 µM | [13] > 100 µM | [14] > 100 µM | [15] > 100 µM | [16] > 100 µM | [17] > 100 µM | [18] > 100 µM

CCOC(=O)C(C)c1nc2c(Cl)c3ncccc3cc2[nH]c1=O (stereo not drawn)
inactive: [1] > 100 µM | [2] 28.2 µM | [3] > 100 µM | [4] > 100 µM | [5] 34 µM | [6] 50.7 µM | [7] 30.5 µM | [8] 84.5 µM | [9] 75.2 µM | [20] > 100 µM | [10] 57 µM | [11] 64.3 µM | [12] 22.6 µM | [13] 53.2 µM | [14] 12.9 µM | [15] 77.1 µM | [16] 22.1 µM | [17] 41 µM | [18] 79.1 µM

COc1cc(CC(C)=O)cc(OC)c1
inactive: [1] 35 µM | [2] 29.8 µM | [3] > 100 µM | [4] > 100 µM | [5] 33.3 µM | [7] 91.2 µM | [8] 41 µM | [9] 65.6 µM | [10] 52.5 µM | [11] 53.8 µM | [12] 76.7 µM | [13] > 100 µM | [14] 26.6 µM | [15] > 100 µM | [16] 27.8 µM | [17] 71.1 µM | [18] 36.3 µM

COc1ccc2nc(N/N=C/c3ccc(C)s3)cc(C)c2c1
inactive: [19] 16.5 µM | [2] 28.1 µM | [3] 17.3 µM | [4] 19.4 µM | [5] 14 µM | [6] 39.7 µM | [7] 15.5 µM | [8] 19 µM | [9] 25.1 µM | [20] 16.3 µM | [10] 14.9 µM | [11] 17.1 µM | [12] 17.7 µM | [13] > 100 µM | [14] 25.4 µM | [15] 13.5 µM | [16] 11.2 µM | [17] 20.1 µM | [18] 21.5 µM

O=C1CCCC/C1=C\c1ccc([N+](=O)[O-])cc1
inactive: [19] 20.4 µM | [2] 2.91 µM | [3] 17.1 µM | [4] 18.4 µM | [5] 2.82 µM | [6] 11 µM | [7] 27.2 µM | [8] > 10 µM | [9] 1.96 µM | [20] 1.79 µM | [10] 23.3 µM | [11] 23.6 µM | [12] 24 µM | [13] 25.5 µM | [14] 20.2 µM | [15] 24 µM | [16] 7.57 µM | [17] 34.6 µM | [18] 21.8 µM

COC(=O)C1CC2CCC1(O[Si](C(C)C)(C(C)C)C(C)C)C(O)C2 (stereo not drawn)
inactive: [1] 96.6 µM | [2] 24.3 µM | [3] 19.1 µM | [4] 29.4 µM | [5] 12.4 µM | [6] 21.8 µM | [7] 23.1 µM | [8] 16.2 µM | [9] 26.4 µM | [20] 14.4 µM | [10] 26.9 µM | [11] 25.8 µM | [12] 22.8 µM | [13] 16.8 µM | [14] 13.6 µM | [15] 20.9 µM | [16] 17.5 µM | [17] 26.2 µM | [18] 17.7 µM

CNC(Cc1ccccc1)c1cccc(OC)c1O (stereo not drawn)
inactive: [1] > 100 µM | [3] > 100 µM | [5] 98.2 µM | [6] > 100 µM | [7] > 100 µM | [8] > 100 µM | [9] > 100 µM | [20] > 100 µM | [10] > 100 µM | [11] 5 µM | [12] > 100 µM | [13] > 100 µM | [14] > 100 µM | [15] > 100 µM | [17] > 100 µM | [18] > 100 µM

CCOC(=O)C(=C(SC)SC)c1nn2c(=O)cc(C)nc2s1
inactive: [19] 18.2 µM | [2] 22.6 µM | [3] 27.2 µM | [4] 18.6 µM | [5] 19.2 µM | [6] 23 µM | [7] 22 µM | [8] 16.6 µM | [9] 21 µM | [20] 15.7 µM | [10] 18.2 µM | [11] 17 µM | [12] 18.4 µM | [13] 49.5 µM | [14] 24.4 µM | [15] 32.9 µM | [16] 17.3 µM | [17] 22.1 µM | [18] 27.9 µM

From ChEMBL document CHEMBL1201862, “PubChem BioAssay data set” (2004)
